Source: the NIST ThermoML archive (doi:10.1016/j.jct.2019.01.025)

What was measured:
[1] = 101.33 kPa, Liquid, Vibrating tube method
[2] = xn = mol fraction of the nth substance listed; conditions: 100 kPa, Liquid, Vibrating tube method

NCCO [2-aminoethan-1-ol]
[1]
Conditions | mass density [kg/m3]
293.15 K | 1016.47
298.15 K | 1012.53
303.15 K | 1008.47
308.15 K | 1004.49
313.15 K | 1000.5
318.15 K | 996.39
323.15 K | 992.41

NCCO [2-aminoethan-1-ol] + CC(C)(C)O
mass density [kg/m3], [2]
Conditions | x1 = 0.1188 | x1 = 0.2328 | x1 = 0.3421 | x1 = 0.4472 | x1 = 0.5482 | x1 = 0.6454 | x1 = 0.739 | x1 = 0.8291 | x1 = 0.9161 | x1 = 1
298.15 K | 801.37 | 821.17 | 842.86 | 865.97 | 887.94 | 912.32 | 938.36 | 962.65 | 988.97 | 1012.53
303.15 K | 796.64 | 816.75 | 838.57 | 861.74 | 883.79 | 908.2 | 934.25 | 958.59 | 984.91 | 1008.47
308.15 K | 791.93 | 812.34 | 834.31 | 857.55 | 879.69 | 904.13 | 930.2 | 954.6 | 980.92 | 1004.49
313.15 K | 787.14 | 807.85 | 829.98 | 853.33 | 875.55 | 900.04 | 926.15 | 950.59 | 976.92 | 1000.5
318.15 K | 782.16 | 803.17 | 825.49 | 848.95 | 871.27 | 895.8 | 921.97 | 946.45 | 972.81 | 996.39
323.15 K | 777.17 | 798.52 | 821.03 | 844.64 | 867.05 | 891.65 | 917.86 | 942.41 | 968.8 | 992.41

NCCO [2-aminoethan-1-ol] + CC(C)CO
mass density [kg/m3], [2]
Conditions | x1 = 0.1188 | x1 = 0.2328 | x1 = 0.3421 | x1 = 0.4472 | x1 = 0.5482 | x1 = 0.6454 | x1 = 0.739 | x1 = 0.8291 | x1 = 0.9161 | x1 = 1
293.15 K | 819.76 | 840.36 | 859.83 | 880.16 | 901.41 | 923.2 | 946.54 | 967.04 | 992.18 | 1016.47
298.15 K | 815.85 | 836.42 | 855.88 | 876.22 | 897.44 | 919.26 | 942.54 | 963.08 | 988.22 | 1012.53
303.15 K | 811.84 | 832.41 | 851.83 | 872.2 | 893.38 | 915.22 | 938.44 | 959.04 | 984.12 | 1008.47
308.15 K | 807.88 | 828.46 | 847.85 | 868.25 | 889.39 | 911.26 | 934.38 | 955.07 | 980.15 | 1004.49
313.15 K | 803.87 | 824.49 | 843.85 | 864.27 | 885.38 | 907.27 | 930.38 | 951.07 | 976.15 | 1000.5
318.15 K | 799.72 | 820.35 | 839.71 | 860.15 | 881.25 | 903.15 | 926.19 | 946.97 | 972.04 | 996.39
323.15 K | 795.62 | 816.29 | 835.65 | 856.12 | 877.2 | 899.14 | 922.11 | 942.97 | 968.05 | 992.41

NCCO [2-aminoethan-1-ol] + CC(C)O
mass density [kg/m3], [2]
Conditions | x1 = 0.0986 | x1 = 0.1974 | x1 = 0.2966 | x1 = 0.3961 | x1 = 0.496 | x1 = 0.5961 | x1 = 0.6966 | x1 = 0.7974 | x1 = 0.8985 | x1 = 1
293.15 K | 804.43 | 824.39 | 844.97 | 868.88 | 891.61 | 915.69 | 939.56 | 965.29 | 989.95 | 1016.47
298.15 K | 800.28 | 820.25 | 840.83 | 864.78 | 887.55 | 911.65 | 935.53 | 961.29 | 985.96 | 1012.53
303.15 K | 795.98 | 815.98 | 836.58 | 860.58 | 883.37 | 907.48 | 931.4 | 957.17 | 981.86 | 1008.47
308.15 K | 791.72 | 811.76 | 832.38 | 856.42 | 879.25 | 903.38 | 927.32 | 953.13 | 977.84 | 1004.49
313.15 K | 787.39 | 807.48 | 828.13 | 852.23 | 875.1 | 899.25 | 923.23 | 949.07 | 973.81 | 1000.5
318.15 K | 782.87 | 803.04 | 823.74 | 847.9 | 870.82 | 895 | 919 | 944.88 | 969.66 | 996.39
323.15 K | 778.38 | 798.63 | 819.42 | 843.64 | 866.61 | 890.84 | 914.87 | 940.8 | 965.62 | 992.41

NCCO [2-aminoethan-1-ol] + CCCCO
mass density [kg/m3], [2]
Conditions | x1 = 0.1188 | x1 = 0.2328 | x1 = 0.3421 | x1 = 0.4472 | x1 = 0.5482 | x1 = 0.6454 | x1 = 0.739 | x1 = 0.8291 | x1 = 0.9161 | x1 = 1
293.15 K | 828.26 | 846.15 | 864.71 | 884.56 | 904.81 | 925.84 | 947.05 | 969.79 | 993.15 | 1016.47
298.15 K | 824.33 | 842.24 | 860.76 | 880.66 | 900.83 | 921.87 | 943.04 | 965.8 | 989.15 | 1012.53
303.15 K | 820.32 | 838.27 | 856.75 | 876.66 | 896.78 | 917.83 | 938.98 | 961.75 | 985.1 | 1008.47
308.15 K | 816.39 | 834.35 | 852.81 | 872.72 | 892.82 | 913.86 | 935 | 957.78 | 981.13 | 1004.49
313.15 K | 812.46 | 830.41 | 848.84 | 868.77 | 888.83 | 909.88 | 931 | 953.79 | 977.14 | 1000.5
318.15 K | 808.37 | 826.33 | 844.74 | 864.67 | 884.72 | 905.76 | 926.88 | 949.68 | 973.04 | 996.39
323.15 K | 804.35 | 822.32 | 840.73 | 860.67 | 880.7 | 901.75 | 922.86 | 945.68 | 969.05 | 992.41

NCCO [2-aminoethan-1-ol] + CCCO
mass density [kg/m3], [2]
Conditions | x1 = 0.0986 | x1 = 0.1974 | x1 = 0.2966 | x1 = 0.3961 | x1 = 0.496 | x1 = 0.5961 | x1 = 0.6966 | x1 = 0.7974 | x1 = 0.8985 | x1 = 1
293.15 K | 823.05 | 842.4 | 862.05 | 882.56 | 903.81 | 924.46 | 946.99 | 969.87 | 992.94 | 1016.47
298.15 K | 818.95 | 838.27 | 857.94 | 878.51 | 899.73 | 920.46 | 942.97 | 965.86 | 988.96 | 1012.53
303.15 K | 814.83 | 834.12 | 853.8 | 874.37 | 895.6 | 916.36 | 938.85 | 961.75 | 984.88 | 1008.47
308.15 K | 810.75 | 830.03 | 849.74 | 870.31 | 891.55 | 912.32 | 934.79 | 957.71 | 980.88 | 1004.49
313.15 K | 806.64 | 825.91 | 845.63 | 866.21 | 887.47 | 908.27 | 930.72 | 953.68 | 976.87 | 1000.5
318.15 K | 802.38 | 821.65 | 841.39 | 861.99 | 883.26 | 904.08 | 926.53 | 949.53 | 972.75 | 996.39
323.15 K | 798.19 | 817.46 | 837.23 | 857.84 | 879.14 | 899.9 | 922.45 | 945.49 | 968.76 | 992.41

NCCO [2-aminoethan-1-ol] + CCO
mass density [kg/m3], [2]
Conditions | x1 = 0.0773 | x1 = 0.1586 | x1 = 0.2443 | x1 = 0.3346 | x1 = 0.43 | x1 = 0.5308 | x1 = 0.6377 | x1 = 0.7511 | x1 = 0.8716 | x1 = 1
293.15 K | 810.46 | 831.93 | 853.39 | 876.12 | 899.09 | 921.99 | 945.08 | 968.64 | 992.58 | 1016.47
298.15 K | 806.22 | 827.71 | 849.2 | 871.96 | 894.95 | 917.9 | 941.02 | 964.62 | 988.58 | 1012.53
303.15 K | 801.86 | 823.37 | 844.9 | 867.69 | 890.7 | 913.65 | 936.83 | 960.48 | 984.46 | 1008.47
308.15 K | 797.55 | 819.07 | 840.65 | 863.47 | 886.5 | 909.55 | 932.73 | 956.42 | 980.42 | 1004.49
313.15 K | 793.21 | 814.75 | 836.38 | 859.23 | 882.29 | 905.4 | 928.6 | 952.34 | 976.38 | 1000.5
318.15 K | 788.71 | 810.29 | 831.96 | 854.85 | 877.94 | 901.1 | 924.34 | 948.13 | 972.21 | 996.39
323.15 K | 784.27 | 805.9 | 827.62 | 850.55 | 873.69 | 896.9 | 920.19 | 944.04 | 968.17 | 992.41

CC(C)CO [2-methyl-1-propanol] + NCCO
[2], x2 = 0
Conditions | mass density [kg/m3]
293.15 K | 801.85
298.15 K | 797.99
303.15 K | 794.03
308.15 K | 790.09
313.15 K | 786.12
318.15 K | 781.97
323.15 K | 777.86

CC(C)(C)O [2-methylpropan-2-ol] + NCCO
[2], x2 = 0
Conditions | mass density [kg/m3]
298.15 K | 780.61
303.15 K | 775.42
308.15 K | 770.21
313.15 K | 764.92
318.15 K | 759.42
323.15 K | 753.95

CCCCO [butan-1-ol] + NCCO
[2], x2 = 0
Conditions | mass density [kg/m3]
293.15 K | 809.77
298.15 K | 805.92
303.15 K | 802
308.15 K | 798.14
313.15 K | 794.24
318.15 K | 790.2
323.15 K | 786.21

CCO [ethanol] + NCCO
[2], x2 = 0
Conditions | mass density [kg/m3]
293.15 K | 789.4
298.15 K | 785.13
303.15 K | 780.75
308.15 K | 776.41
313.15 K | 772.04
318.15 K | 767.52
323.15 K | 763.04

CCCO [propan-1-ol] + NCCO
[2], x2 = 0
Conditions | mass density [kg/m3]
293.15 K | 803.77
298.15 K | 799.69
303.15 K | 795.58
308.15 K | 791.52
313.15 K | 787.42
318.15 K | 783.17
323.15 K | 778.96

CC(C)O [propan-2-ol] + NCCO
[2], x2 = 0
Conditions | mass density [kg/m3]
293.15 K | 785.1
298.15 K | 780.91
303.15 K | 776.57
308.15 K | 772.24
313.15 K | 767.82
318.15 K | 763.19
323.15 K | 758.55
